Legend:
[1] = Inhibition of recombinant perforin-mediated lysis of Jurkat cells assessed as [51Cr] release preincubated with perforin for 30 mins followed by incubation with [51Cr]-labeled Jurkat cells by gamma counting
[2] = target: T1, Perforin-1 (Homo sapiens, UniProt P14222); assay: Inhibition of recombinant perforin-mediated lysis of Jurkat cells assessed as [51Cr] release preincubated with perforin for 30 mins followed by incubation with [51Cr]-labeled Jurkat cells by gamma counting
T1 sequence (P14222 whole entry): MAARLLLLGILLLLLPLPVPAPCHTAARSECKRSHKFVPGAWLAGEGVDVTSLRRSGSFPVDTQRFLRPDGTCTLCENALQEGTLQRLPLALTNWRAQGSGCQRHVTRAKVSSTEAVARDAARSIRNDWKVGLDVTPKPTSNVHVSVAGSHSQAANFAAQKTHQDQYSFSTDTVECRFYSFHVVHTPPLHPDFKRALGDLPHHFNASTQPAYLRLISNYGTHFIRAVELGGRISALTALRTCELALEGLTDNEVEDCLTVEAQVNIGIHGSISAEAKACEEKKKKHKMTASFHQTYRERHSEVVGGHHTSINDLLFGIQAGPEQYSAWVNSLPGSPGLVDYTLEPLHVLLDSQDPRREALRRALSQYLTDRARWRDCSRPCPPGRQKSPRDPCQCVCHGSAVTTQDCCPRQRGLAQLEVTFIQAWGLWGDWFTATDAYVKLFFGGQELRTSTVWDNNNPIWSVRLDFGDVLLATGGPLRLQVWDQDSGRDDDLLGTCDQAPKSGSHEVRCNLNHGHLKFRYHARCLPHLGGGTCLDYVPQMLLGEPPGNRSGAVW

Compound | IC50 [1] [nM] | IC50 [2] [µM]
O=C1NC(=S)NC1=Cc1ccc(-c2ccc3c(c2)COC3=O)s1 | 780 | 
O=C1NC(=S)NC1=Cc1ccc(-c2ccc3c(c2)COC3=O)nc1 | 2000 | 
O=C1NC(=S)NC1=Cc1ccc(-c2ccc3c(c2)COC3=O)[nH]1 | 2450 | 
O=C1NC(=S)NC1=Cc1nc(-c2ccc3c(c2)COC3=O)cs1 | 1410 | 
O=C1NC(=S)NC1=Cc1csc(-c2ccc3c(c2)COC3=O)n1 | 340 | 
O=C1NC(=S)NC1=Cc1cc(-c2ccc3c(c2)COC3=O)ns1 | 1440 | 
O=C1NC(=S)NC1=Cc1cc2cc(-c3ccc4c(c3)COC4=O)ccc2o1 | 510 | 
O=C1NC(=S)NC1=Cc1cc2cc(-c3ccc4c(c3)COC4=O)ccc2[nH]1 | 820 | 
O=C1NC(=S)NC1=Cc1ccc2cc(-c3ccc4c(c3)COC4=O)ccc2n1 | 470 | 
O=C(NCC=Cc1[nH]c(=S)[nH]c1O)c1ccc2c(c1)COC2=O |  | > 20
O=C1OCc2cc(-c3cccs3)ccc21 | > 20000 | 
CC(=O)c1ccc(-c2ccc3c(c2)COC3=O)s1 | > 20000 | 
O=Cc1ccc(-c2ccc3c(c2)COC3=O)s1 | 6310 | 
O=C(O)Cc1ccc(-c2ccc3c(c2)COC3=O)s1 | > 20000 | 
COC(=O)Cc1ccc(-c2ccc3c(c2)COC3=O)s1 | > 20000 | 
O=C1NC(=S)SC1=Cc1ccc(-c2ccc3c(c2)COC3=O)s1 | > 10000 | 
O=C1NC(=O)C(=Cc2ccc(-c3ccc4c(c3)COC4=O)s2)S1 | 1120 | 
O=C1NC(=O)C(=Cc2ccc(-c3ccc4c(c3)COC4=O)s2)C(=O)N1 | 800 | 
O=C1NC(=S)NC(=O)C1=Cc1ccc(-c2ccc3c(c2)COC3=O)s1 | 400 | 
CN1C(=O)C(=Cc2ccc(-c3ccc4c(c3)COC4=O)s2)C(=O)N(C)C1=O | 3960 | 
O=C1OCc2cc(-c3ccc(-c4cnco4)s3)ccc21 | 3180 | 
O=C1NCCCC1=Cc1ccc(-c2ccc3c(c2)COC3=O)s1 | 15200 | 
